Consider 12 molecules from US20030191323A1, “Hypoglycemic agent” (Ajinomoto Co., Inc., priority 2000, published 2003).

As usually defined, the inhibition in vivo is the relative decrease from the control value, in per cent. A word on the melting point: it is the temperature of the solid-liquid transition.

The test system of data set [1] is non-insulin-dependent diabetes model mice (KK mice). Put plainly: Hypoglycemic effect on non-insulin-dependent diabetes model mice (KK mice). The conditions noted are these: Mus musculus, 168 h; 30 mg/kg twice a day for one week, KK mice 8 weeks old; fasted overnight; calculated on the basis of blood glucose level (100) in the control group. In kind it is in vivo. On the procedure: Hypoglycemic Effect on Non-Insulin-Dependent Diabetes Model Mice (KK Mice)
Method: A compound (30 mg/kg) was administered to non-insulin-dependent diabetes model mice (8 weeks old) twice a day for one week. After final administration, the mice were fasted overnight and then the blood glucose concentration of each mouse was determined. The hypoglycemic effect of the compound was calculated on the basis of the blood glucose level (100) in the control group.

In data set [2] the test system is Rat skeletal muscle cell strain L6 cells. Put plainly: Effect of accelerating the glucose uptake in cultured skeletal muscle cells ([3H]-2-deoxyglucose uptake). Type of data set: cell-based. The conditions noted are these: 10 min, 10 μM compound, cultured overnight, 2DG uptake in L6 myotubes, 37° C. 10 minutes, compared with the control group. On the procedure:
Effect of accelerating the glucose uptake in cultured skeletal muscle cells: Method: Rat skeletal muscle cell strain “L6 cells” in a confluent state was cultured in DME medium containing 2% of fetal calf serum for one week to differentiate into myotubes. The medium was replaced with the DME medium containing a compound synthesized in each of the above Reference Examples. After culturing overnight followed by the thorough washing with HEPES buffer solution, an HEPES buffer solution containing 37 kBq/ml of 10 μM [3H]-2-deoxyglucose (2DG) was added thereto. After the culture at 37° C. for 10 minutes, the radioactivity of 2DG transmigrated into the cells was determined. The effect (%) of each compound on 2DG uptake was determined as compared with that in the control group.

In turn, `CCCCCC(=O)NS(=O)(=O)c1ccccc1NC(=O)c1ccc(C#Cc2ccc(F)cc2)cc1` [compound 69, 4-(4-Fluoro)phenylethynyl-N-(2-hexanoylaminosulfonylphenyl)benzamide] yielded a melting point of 183 to 186 °C. In data set [1], the inhibition in vivo at 30 mg/kg was 27.7%. Moreover, the activity at 10 µM in data set [2] was determined as 240%.

`CCCCCC(=O)NS(=O)(=O)c1ccccc1NC(=O)c1ccc(C#Cc2cccc(F)c2)cc1` [compound 72, 4-(3-Fluoro)phenylethynyl-N-(2-hexanoylaminosulfonylphenyl)benzamide] had a melting point of 183 to 186 °C. The inhibition in vivo at 30 mg/kg in data set [1] is 9.2%. The activity at 10 µM in data set [2] is 279%.

As to `CCCCCC(=O)NS(=O)(=O)c1ccccc1NC(=O)c1ccc(C#Cc2cccc(C(F)(F)F)c2)cc1` [compound 60, 4-(3-Trifluoromethyl)phenylethynyl-N-(2-hexanoylaminosulfonylphenyl)benzamide], the melting point was in the range of 194 to 196 °C. The inhibition in vivo at 30 mg/kg in data set [1] was 51.1%. The activity at 10 µM in data set [2] was 246%.

The molecule `CCCOCC(=O)NS(=O)(=O)c1ccccc1NC(=O)c1ccc(C#Cc2cccc(C(F)(F)F)c2)cc1` [compound 62, 4-(3-Trifluoromethyl)phenylethynyl-N-(2-(2-propyloxyacetylamino)sulfonylphenyl)benzamide] displayed a melting point of 175 to 177 °C. In addition, in data set [1], the inhibition in vivo at 30 mg/kg is 60.9%.

Turning to `CCCCCC(=O)NS(=O)(=O)c1ccccc1NC(=O)c1ccc(C#Cc2ccc(OC(F)(F)F)cc2)cc1` [compound 66, 4-(4-Trifluoromethoxyl)phenylethynyl-N-(2-hexanoylaminosulfonylphenyl)benzamide], the melting point lay within 197 to 199 °C. Also, in data set [1], the inhibition in vivo at 30 mg/kg is 28.2%. Also, the activity at 10 µM in data set [2] was 94%.

With `CCCCCC(=O)NS(=O)(=O)c1ccccc1NC(=O)c1ccc(C#Cc2ccccc2)cc1` [compound 49, N-[2-(4-Phenylethynylbenzamido)benzenesulfonyl]hexanamide], the melting point lay within 175 to 176 °C. Besides, in data set [1], the inhibition in vivo at 30 mg/kg is 10.3%. Also, in data set [2], the activity at 10 µM was determined as 212%.

The molecule `CC(=O)CCCC(=O)NS(=O)(=O)c1ccccc1NC(=O)c1ccc(C#Cc2ccc(OC(F)(F)F)cc2)cc1` [compound 67, 4-(4-Trifluoromethoxyl)phenylethynyl-N-(2-(5-ketohexanoylamino)sulfonylphenyl)benzamide] gave a melting point of 204 to 205 °C. The inhibition in vivo at 30 mg/kg in data set [1] was 40.2%.

The molecule `CC(=O)CCCC(=O)NS(=O)(=O)c1ccccc1NC(=O)c1ccc(C#Cc2ccc(F)cc2)cc1` [compound 70, 4-(4-Fluoro)phenylethynyl-N-(2-(5-ketohexanoylamino)sulfonylphenyl)benzamide] displayed a melting point of 179 to 181 °C. The inhibition in vivo at 30 mg/kg in data set [1] is 30.5%.

In turn, `CCCCCC(=O)NS(=O)(=O)c1ccccc1NC(=O)c1ccc(C#Cc2ccc(C(F)(F)F)cc2)cc1` [compound 64, 4-(4-Trifluoromethyl)phenylethynyl-N-(2-hexanoylaminosulfonylphenyl)benzamide] showed a melting point of 210 to 212 °C. The inhibition in vivo at 30 mg/kg in data set [1] was 34.5%. Also, the activity at 10 µM in data set [2] is 204%.

As for `CC(=O)CCCC(=O)NS(=O)(=O)c1ccccc1NC(=O)c1ccc(C#Cc2cccc(C(F)(F)F)c2)cc1` [compound 61, 4-(3-Trifluoromethyl)phenylethynyl-N-(2-(5-ketohexanoylamino)sulfonylphenyl)benzamide], the melting point lay within 169 to 171 °C. The inhibition in vivo at 30 mg/kg in data set [1] is 65.7%.

As to `CCCSCC(=O)NS(=O)(=O)c1ccccc1NC(=O)c1ccc(C#Cc2ccccc2)cc1` [compound 58, 4-Phenylethynyl-N-(2-(2-propylthioacetylamino)sulfonylphenyl]benzamide], the melting point lay within 186 to 188 °C. Further, in data set [1], the inhibition in vivo at 30 mg/kg was 22.7%.

On to `CCCCCC(=O)NS(=O)(=O)c1ccccc1NC(=O)c1cccc(OCc2ccc(OC)cc2)c1` [compound 30, N-[2-[3-(4-Methoxybenzyloxy)benzamido]benzenesulfonyl]hexanamide], for which the melting point lay within 154 to 157 °C. Besides, the activity at 10 µM in data set [2] stood at 131%.
